# Data from patent publication US9085608B2, “Treatment of biofilms” (LYTIX BIOPHARMA AS, priority 2008, dated 2015).
# Residues, ends and D or L forms follow the SMILES beside them. *: point of attachment. NHPhenethyl = c1ccc(CCN*)cc1
# Tests used:
# Assay type in all cases: cell-based
# [1] = tested on: 8-16 S. epidermidis biofilm; assay: MBIC, biofilm survival rate by Alamar blue, Example 3; conditions: 24 h
# Method: (§1) Biofilm formation was induced in 96-well flat bottom microtitre plates (Nunclon Surface, NUNC). First, overnight cultures were diluted 1:100 in MHIIB (S. epidermidis and S. haemolyticus) or tryptic soy broth (TSB) with 5% glucose and 5% NaCl (S. aureus). […] of this bacterial suspension (10^7 cfu/ml) was added to each well and incubated for 24 h at 37° C. After 24 h the wells were carefully washed twice with phosphate-buffered saline (PBS) to remove planktonic bacteria. The washing procedure was carefully evaluated by measuring metabolic activity of the PBS with the Alamar blue method, described in detail below.
# (§2) The washed biofilms were subjected to treatment with the Compounds at different concentrations.
# (§3) Trifluoroacetate salts of the compounds were dissolved in sterile water and diluted to 5 mg/L, 50 mg/L and 500 mg/L in MHIIB. […] of the Compounds, in different concentrations, were added to each well and incubated for 24 h at 37° C. Positive controls were untreated biofilms only added 200 MHIIB. Negative controls were only 200 μl MHIIB, with no bacteria added.
# (§4) The metabolic activity of the biofilm was quantified with a slightly modified method previously described by Pettit et al. Antimicrob. Agents Chemother. 2005; 49: 2612-7. Briefly, after the 24 h incubation with antimicrobial agents the wells were again washed twice with PBS and then added […] MHIIB with 5% Alamar blue (AB; Biosource, Camarillo, Calif., USA). AB is a redox indicator which both fluoresces and changes colour in response to chemical reduction. The extent of reduction is a reflection of bacterial cell viability. After 1 h incubation at 37° C., absorbance was recorded at 570 and 600 nm using Versamax tuneable microplate reader (Molecular Devices, Sunnyvale, Calif., USA). All assays were performed 3 times with 8 parallels. The highest and lowest value of each run was excluded from the analyses, and the remaining 18 values were averaged.
# [2] = tested on: 51-03 S. haemolyticus biofilm; assay: as above; conditions: 24 h
# Method: as §1, §2, §3, §4
# [3] = tested on: 51-07 S. haemolyticus biofilm; assay: as above; conditions: 24 h
# Method: as §1, §2, §3, §4
# [4] = tested on: 42-77 S. epidermidis biofilm; assay: as above; conditions: 24 h
# Method: as §1, §2, §3, §4
# PIA 9 S. aureus biofilm = assay: as above; conditions: 24 h
# Method: as §1, §2, §3, §4
# PIA 90 S. aureus biofilm = assay: as above; conditions: 24 h
# Method: as §1, §2, §3, §4
# 42-77 S. epidermidis = conditions: planctonic
# Source text: (§5) Minimum Inhibitory Concentration (MIC) on Planctonic Bacteria
# PIA 9 S. aureus = conditions: planctonic
# Source text: as §5
# 51-07 S. haemolyticus = conditions: planctonic
# Source text: as §5
# 8-16 S. epidermidis = conditions: planctonic
# Source text: as §5
# PIA 90 S. aureus = conditions: planctonic
# Source text: as §5
# 51-03 S. haemolyticus = conditions: planctonic
# Source text: as §5
smiles,measurement,setting,value
"N=C(N)NCCC[C@H](NC(=O)[C@H](Cc1c[nH]c2ccccc12)NC(=O)[C@H](Cc1c[nH]c2ccccc12)NC(=O)[C@H](CCCNC(=N)N)NC(=O)[C@@H](N)Cc1c[nH]c2ccccc12)C(=O)NCCc1ccccc1 [ME 172, W-R-W-W-R-NH-CH2CH2Ph] (H-WRWWR-NHPhenethyl)",MBIC measured as survival rate,[1]; 5 μg/ml,100%
same,MBIC measured as survival rate,[1]; 50 μg/ml,80%
same,MBIC measured as survival rate,[1]; 500 μg/ml,20%
same,MBIC measured as survival rate,[2]; 5 μg/ml,100%
same,MBIC measured as survival rate,[2]; 50 μg/ml,6%
same,MBIC measured as survival rate,[2]; 500 μg/ml,8%
same,MBIC measured as survival rate,[3]; 5 μg/ml,100%
same,MBIC measured as survival rate,[3]; 50 μg/ml,41%
same,MBIC measured as survival rate,[3]; 500 μg/ml,12%
same,MBIC measured as survival rate,[4]; 5 μg/ml,100%
same,MBIC measured as survival rate,[4]; 50 μg/ml,85%
same,MBIC measured as survival rate,[4]; 500 μg/ml,10%
same,MBIC measured as survival rate,PIA 9 S. aureus biofilm; 5 μg/ml,100%
same,MBIC measured as survival rate,PIA 9 S. aureus biofilm; 50 μg/ml,100%
same,MBIC measured as survival rate,PIA 9 S. aureus biofilm; 500 μg/ml,18%
same,MBIC measured as survival rate,PIA 90 S. aureus biofilm; 5 μg/ml,100%
same,MBIC measured as survival rate,PIA 90 S. aureus biofilm; 50 μg/ml,55%
same,MBIC measured as survival rate,PIA 90 S. aureus biofilm; 500 μg/ml,10%
same,MIC,42-77 S. epidermidis,16 µg/mL
same,MIC,PIA 9 S. aureus,16 µg/mL
same,MIC,51-07 S. haemolyticus,8 µg/mL
same,MIC,8-16 S. epidermidis,16 µg/mL
same,MIC,PIA 90 S. aureus,32 µg/mL
same,MIC,51-03 S. haemolyticus,8 µg/mL
